Experimental data reported in patent US12496297B1, “Compositions of autophagy modulating agents and uses thereof” (Washington University, priority 2020, dated 2025).
Entries after “also recorded” stand apart in the source; their conditions may differ.

Columns and labels:
[1] = tested on: α1-antitrypsin Z variant (ATZ); assay: Steady state levels of ATZ in HTO/Z cell line (immunoblot); activity of G2 analogs; type: cell-based, human; settings: for Activity: G2 and G2 analogs, positive activity if shown to have any activity, not quantified; for effect on cellular ATZ levels: 48 hrs incubation, immunoblot, FIG. 8 / FIG. 14; for IC50: TABLE 1, assay not given
Description: For experiments with G2 analogs, Tet-off inducible cell lines were cultured in absence of doxycycline for at least 12 days to ensure expression of […] or its variants. The cells were then sub-cultured into separate monolayers in fresh complete growth medium and incubated for 48 hours in the absence or presence of G2 analog. […] All compounds available commercially were purchased except for G2-22, which was synthesized with routine chemistry.
Cells were lysed in NP40 buffer and then separated into insoluble and soluble fractions according to a previously established technique. Samples were subjected to immunoblot analysis for AT and GAPDH. For immmunoblot analysis to detect AT or GAPDH, cells were lysed in 50 mM Tris-HCl, 150 mM NaCl, 1% NP-40, pH 8.0. Protein concentrations were determined by BCA protein assay (Pierce Biotechnology, Rockford, IL). […] The membranes were blocked in 5% milk and then incubated overnight at 4° C. with primary antibody for AT (1:1000, Diasorin), LC3 (1:2000, Sigma), p62 (1:1000, Cell signaling, Danvers, MA), ATG5 (1:1000, Cell signaling), mTOR substrate sampler (1:1000 for all antibodies, Cell signaling). Donkey anti-goat Ig (Jackson Labs, Bar Harbor, ME), goat anti-rabbit lg (1:50,000), or goat anti-mouse Ig (1:50,000) were used as secondary antibodies in TBST at RT, 1 hour. Blots were visualized with ECL or West Femto from Pierce. Membranes were re-probed with GAPDH (1:5000, Sigma) as loading control. Insoluble samples were stained with Gel Code Blue as loading control.

misfolded ATZ = settings: mammalian cell models of ATD; previously shown; cited from earlier work
PiZ mouse model of ATD = assay: PiZ mouse model of ATD, oral gavage; type: in vivo; settings: for hepatic / liver fibrosis (Sirius Red staining): G2-19: 3 weeks of treatment vs placebo
Description: The PiZ mouse model has been described previously (Hidvegi 2010 Science 329 (5988): 229-232). For experiments involving drug administration in mice in vivo, doses of 5-50 mg/kg/day for the G2 analog were given for 3 weeks, and then liver histological and biochemical characteristics were assessed exactly as previously described (Hidvegi 2005J Biol Chem 280 (47): 39002-39015). Each experimental group contained 4-6 four- to six-month old male mice randomly chosen from littermates. G2 analogs were delivered by oral gavage. Control mice were littermates given DMSO by gavage. The outcome was determined by evaluating 1) the hepatic ATZ load by immunoblotting with anti-AT, immunostaining with PAS/D; 2) hepatic fibrosis using Sirius Red staining; 3) autophagy by immunoblotting with anti-LC3 and anti-p62, and imaging for GFP+autophagosomes; 4) monitoring blood glucose levels by glucometer and blood insulin levels by ELISA Wide Range Assay (CrystalChem). For immunostaining, liver samples were fixed in 10% Formalin, followed by staining with PAS after diastase and Sirius Red using standard techniques. Quantitative evaluation of immunostaining and histochemical staining was carried out by a member of the team that was blinded to group allocation. Blood glucose and insulin levels were quantified as previously described (Wang 2019 PLOS One 14: e0209748).
For immunoblot analysis of proteins in liver, the liver was snap frozen in liquid nitrogen and stored at −80° C. Liver was homogenized in 50 mM Tris-HCl pH 8.0, 150 mM NaCl, 2 mM KCl, 2 mM MgCl2, 0.5% Triton X-100, 0.5% deoxycholic acid containing 0.1 mM […] and Complete protease inhibitor cocktail from Roche. Total protein concentration was measured by BCA assay (Pierce) and followed by western blotting as described previously.

[2] = tested on: C. elegans model of ATD (sGFP::ATZ); assay: Quantification of ATZ accumulation in C. elegans model of ATD (Z worm); type: in vivo; settings: 24 h incubation, FIG. 9
Description: The C. elegans strain VK1882 (vkls1882 [nhx-2p::sGFP::ATZ; myo-2p::mCherry) was routinely cultured at 20° C. on nematode growth medium plates seeded with E. coli strain OP50. Quantitative analysis of ATZ accumulation was carried out by detection of fluorescence using the Thermofisher CellInsight CX-7 high content imager as previously described. L4 stage animals were placed into wells of 384-well plates (30 per well) containing G2 analogs or an equivalent volume of DMSO. Following incubation at 20° C. for 24 hours, sodium azide was added to a final concentration of […] to anesthetize the animals and then each well was imaged on the CX-7 high content imager for quantification.

[3] = tested on: striatal neurons from control 2171WT; assay: Cell death (SytoX assay) in striatal neurons from control individual; type: cell-based, human; settings: doses of 5 and 10 μM; data not shown
Description: (§1) Striatal neurons from Huntington's patient GM 04198 and control 2171WT were prepared as previously described. Cells, at 24 days after induction, were incubated with G2 analog or an equivalent volume of DMSO for 14 days (drug/DMSO added with medium change every 4 days) and then cell death was determined by SytoX assay as previously described.

[4] = tested on: HTT inclusion bodies (IBs) in HD-MSNs; assay: HTT inclusion bodies / mHTT aggregation in HD-MSNs; type: cell-based, human
Description: Adult dermal fibroblasts from symptomatic HD patients (Coriell NINDS and NIGMS Repositories: ND33947, ND30013, GM02173, GM04230, GM04198, GM02147), presymptomatic HD patients (GM04717, GM04861, GM04855, GM04831, GM04857, GM04829), and healthy controls (GM02171) were acquired from the Coriell Institute for Medical Research. The lentiviral cocktail of rtTA, pTight-9-124-BclxL, CTIP2, MYT1L, DLX1, and DLX2 was added to human fibroblasts for 16 h, then cells were washed and fed with fibroblasts media containing 1 μg/mL doxycycline (DOX). Briefly, transduced fibroblasts were maintained in fibroblasts media for two days with doxycycline before selection with Puromycin ([…]) on day 3, then were plated onto poly-ornithine, fibronectin, and laminin-coated coverslips on day 5. Cells were subsequently maintained in NeurobasalA (Gibco) media containing B-27 plus supplement and GlutaMAX supplemented with valproic acid (1 mM), dibutyryl cAMP ([…]), BDNF (10 ng/ml), NT-3 (10 ng/ml), and RA ([…]) until day 13. […]
Reprogramming cells were fixed with 4% paraformaldehyde (Electron Microscopy Sciences, #15710) for 20 min at room temperature (RT), and then permeabilized with 0.2% Triton X-100 for 10 min at RT. […] Images were captured using a Leica SP5X white light laser confocal system with Leica Application Suite (LAS) Advanced Fluorescence 2.7.3.9723.

[5] = tested on: striatal neurons from Huntington's patient GM 04198; assay: Cell death (SytoX assay) in striatal neurons from Huntington's patient; type: cell-based, human
Description: as §1

HD-MSNs [6] = assay: Neuronal cell death assay in HD-MSNs (SYTOX, Caspase-3/7, Annexin V); type: cell-based, human
Description: (§2) Adult dermal fibroblasts from symptomatic HD patients (Coriell NINDS and NIGMS Repositories: ND33947, ND30013, GM02173, GM04230, GM04198, GM02147), presymptomatic HD patients (GM04717, GM04861, GM04855, GM04831, GM04857, GM04829), and healthy controls (GM02171) were acquired from the Coriell Institute for Medical Research. The lentiviral cocktail of rtTA, pTight-9-124-BclxL, CTIP2, MYT1L, DLX1, and DLX2 was added to human fibroblasts for 16 h, then cells were washed and fed with fibroblasts media containing 1 μg/mL doxycycline (DOX). […]
0.1 μM SYTOX gene nucleic acid stain (Invitrogen, S7020) and 1 μl/mL of Hoeschst 33342 (Thermo Scientific, 66249) were added into cell medium. […] Images were taken using Leica DMI 4000B inverted microscope with Leica Application Suite (LAS) Advanced Fluorescence.
Cells were treated with 1× Essen Bioscience IncuCyte® Caspase-3/7 Green Reagent (final concentration 5 µM) and 1× Essen Bioscience IncuCyte® Annexin V Green or Red Reagent on day 22 or 26. […] Images were analyzed for the number of green or red objects per well. For the apoptotic index, the number of green or red objects (i.n., fluorescence cells) divided by phase area (μm2) per well was quantified by the IncuCyte® S3 Live-Cell Analysis System.

HD-MSNs [7] = assay: Autophagy measurement in HD-MSNs (p62 immunoblot, CYTO-ID green); type: cell-based, human; settings: 0.5 μM vs DMSO
Description: To test whether the differentially expressed genetic pathways between pre-HD-MSNs and HD-MSNs would be reflected at the cellular level, whether the autophagy activity would be different between pre-HD- and HD-MSNs was assessed. CYTO-ID assay, a fluorescence-based live-cell assay for accumulated autophagic vacuoles was performed as well as immunoblot for p62/SQSTM1 expression, a marker used to monitor autophagic activity due to its binding to LC3 and degradation by autophagy.
as §2
Cells were lysed in a 2% SDS buffer. The concentrations of whole-cell lysates were measured using the Pierce BCA protein assay kit (Thermo Scientific, #23227). […]

[8] = tested on: α1-antitrypsin Z variant (ATZ); assay: Steady state levels of ATZ in HTO/Z cell line (immunoblot); activity of G2 analogs; type: cell-based, human; settings: 24 hr treatment, 0.5 and 2.5 μM, FIG. 22C
[9] = PiZ mouse, marker of autophagic activity

SMILES: COc1ccc(Cl)cc1C(N)=O [G2, 5-chloro-2-methoxybenzamide]
- Activity [1]: Active
- autophagic degradation of misfolded ATZ (misfolded ATZ): promoted autophagic degradation
- hepatic ATZ load (PiZ mouse model of ATD; PiZ mouse): significant reduction of hepatic ATZ load
- insulin secretion (PiZ mouse model of ATD; PiZ mouse): without affecting insulin secretion
- LC3-II conversion in the liver (PiZ mouse model of ATD; [9]): increased LC3-II conversion
- p62 levels in the liver (PiZ mouse model of ATD; [9]): decreased p62 levels
- hepatic / liver fibrosis (Sirius Red staining) (PiZ mouse model of ATD; PiZ mouse): significant reduction
- liver damage (PiZ mouse model of ATD; mouse model of ATD): reverse liver damage

SMILES: Cn1ccc2cc(Cl)ccc2c1=O [G2-19, 6-chloro-2-methylisoquinolin-1(2H)-one]
- effect on cellular ATZ levels [1]: reduces ATZ levels in a dose-dependent manner; also recorded: more potent than G2-3
- Activity [1]: Active (Highly Active)
- reduction of ATZ levels ([1]; dose of 5 μM, 48 hrs, FIG. 8): 60%
- effect on ATZ levels in intestinal cells of the ATZ worm ([2]; GFP/RFP fluorescence): dose-dependent decrease in ATZ levels; also recorded: not as potent as positive control prochlorperazine (PCP)
- reduction in ATZ levels (fluorescence) ([2]; at 40 µM): ~50%
- neuronal death (percent SYTOX positive cells) [3]: no effect
- HTT inclusion body (IB) ([4]; HD-MSNs, compared to the inactive form, FIG. 13): lowers HTT inclusion body (IB)
- cell death (percent SYTOX positive cells) ([5]; FIG. 11, dose-dependent between 0.5 and 10 μM, 14 days): reduces cell death
- neuronal death (percent SYTOX positive cells) ([5]; second experiment, FIG. 12, doses of 5 and 10 μM): reduced neuronal death
- hepatic ATZ load (PiZ mouse model of ATD; PiZ mouse): reduced hepatic ATZ load
- insulin secretion (PiZ mouse model of ATD; PiZ mouse): without affecting insulin secretion
- hepatic / liver fibrosis (Sirius Red staining) (PiZ mouse model of ATD; PiZ mouse): marked and statistically significant decrease

SMILES: O=c1ccc2c(Cl)cc(Cl)cc2[nH]1 [G2-115, 5,7-dichloroquinolin-2(1H)-one]
- Activity [1]: Active
- IC50 [1]: 100 to 1000 nM
- MSN death by Caspase 3/7 activation and Annexin V signals (HD-MSNs [6]; HD.40-MSNs three concentrations PID 30 (FIG. 18I), three patients 0.5 μM (FIG. 18J)): significant reduction in MSN death in a dose-dependent manner
- MSN death measured by SYTOX (HD-MSNs [6]; HD.44-MSNs, 0.125, 0.25, or 0.5 µM, PID 35, FIG. 18H): significant reduction in MSN death in a dose-dependent manner
- p62/SQSTM1 protein levels (immunoblot) (HD-MSNs [7]; PID26, FIG. 18F): decrease in p62/SQSTM1 protein levels
- CYTO-ID signal (autophagic vacuoles) (HD-MSNs [7]; PID 26, FIG. 18G): increase in CYTO-ID signal
- mHTT aggregation ([4]; HD-MSNs from three patients, 0.5 μM vs DMSO, PID30, FIG. 18K): significantly lower levels of mHTT aggregation
- steady-state levels of ATZ [8]: decreased the steady-state levels of ATZ

SMILES: O=c1ccc2c(Cl)cc(-c3ccccc3)cc2[nH]1 [G2-233, 5-chloro-7-phenylquinolin-2(1H)-one]
- Activity [1]: Active
- IC50 [1]: 1000 to 10000 nM

SMILES: O=c1ccc2c(Cl)cc(N3CCCCC3)cc2[nH]1 [G2-235, 5-chloro-7-(piperidin-1-yl)quinolin-2(1H)-one]
- Activity [1]: Active
- IC50 [1]: 1000 to 10000 nM

SMILES: O=C(c1cc(Cl)c2ccc(=O)[nH]c2c1)N1CCCCC1 [G2-237, 5-chloro-7-(piperidine-1-carbonyl)quinolin-2(1H)-one]
- effect on cellular ATZ levels [1]: reduce ATZ levels in a dose-dependent manner
- Activity [1]: Active
- IC50 [1]: 100 to 1000 nM

SMILES: CCCCCCOc1cc(Cl)c2ccc(=O)[nH]c2c1 [G-211, 5-chloro-7-(hexyloxy)quinolin-2(1H)-one]
- Activity [1]: Active
- IC50 [1]: 1000 to 10000 nM
